Measured values taken from ChEMBL document CHEMBL1131748, “Nitroquinolones with broad-spectrum antimycobacterial activity in vitro” (1999).
Values after ≈ are worked out from the molar mass of the structure shown.

Key:
Type in all cases: functional
MT4 = test: Concentration required to reduce the viability of mock-infected MT-4 cells by 50%; conditions: Homo sapiens
Mycobacterium avium [1] = test: Minimum inhibitory concentration required in vitro to reduce the number of viable of Mycobacterium avium complex (MAC) ATCC 49601 by 50%
Mycobacterium avium [2] = test: Minimum inhibitory concentration required in vitro to reduce the number of viable of Mycobacterium avium complex (MAC) ATCC 49601 by 90%
[3] = test system: Mycolicibacterium fortuitum; test: Minimum inhibitory concentration required in vitro to reduce the number of viable of Mycobacterium fortuitum (clinical isolate) by 50%
[4] = test system: Mycolicibacterium smegmatis; test: Minimum inhibitory concentration required in vitro to reduce the number of viable of Mycobacterium smegmatis ATCC 19420 by 50%
[5] = test system: Mycobacterium tuberculosis; test: Minimum inhibitory concentration required in vitro to reduce the number of viable of Mycobacterium tuberculosis ATCC 27294 by 50%
[6] = test system: Mycobacterium tuberculosis; test: Minimum inhibitory concentration required in vitro to reduce the number of viable of Mycobacterium tuberculosis clinical isolate 1104 by 50%
[7] = test system: Mycobacterium tuberculosis; test: Minimum inhibitory concentration required in vitro to reduce the number of viable of Mycobacterium tuberculosis ATCC 27294 by 90%
[8] = test system: Mycobacterium tuberculosis; test: Minimum inhibitory concentration required in vitro to reduce the number of viable of Mycobacterium tuberculosis clinical isolate 1104 by 90%
[9] = test system: Mycolicibacterium smegmatis; test: Minimum inhibitory concentration required in vitro to reduce the number of viable of Mycobacterium smegmatis ATCC 19420 by 90%
Salmonella [10] = test: Minimum bactericidal concentration required in vitro against Salmonella
Salmonella [11] = test: Minimum inhibitory concentration required in vitro against Salmonella
Shigella [12] = test: Minimum bactericidal concentration required in vitro against Shigella
Shigella [13] = test: Minimum inhibitory concentration required in vitro against Shigella
Streptococcus [14] = test: Minimum bactericidal concentration required in vitro against Streptococcus D
Streptococcus [15] = test: Minimum inhibitory concentration required in vitro against Streptococcus D
Staphylococcus aureus [16] = test: Minimum inhibitory concentration required in vitro against Staphylococcus aureus
Staphylococcus aureus [17] = test: Minimum bactericidal concentration required in vitro against Staphylococcus aureus
[18] = test system: Mycolicibacterium fortuitum; test: Minimum inhibitory concentration required in vitro to reduce the number of viable of Mycobacterium fortuitum (clinical isolate) by 90%

SMILES	CC50 (MT4) [µM]	MIC50 (Mycobacterium avium [1]) [µM]	MIC90 (Mycobacterium avium [2]) [µM]	MIC50 [3] [µM]	MIC50 [4] [µM]	MIC50 [5] [µM]	MIC50 [6] [µM]	MIC90 [7] [µM]	MIC90 [8] [µM]	MIC90 [9] [µM]	MBC (Salmonella [10]) [µM]	MIC (Salmonella [11]) [µM]	MBC (Shigella [12]) [µM]	MIC (Shigella [13]) [µM]	MBC (Streptococcus [14]) [µM]	MIC (Streptococcus [15]) [µM]	MIC (Staphylococcus aureus [16]) [µM]	MBC (Staphylococcus aureus [17]) [µM]	MIC90 [18] [µM]
CC(C)(C)n1cc(C(=O)O)c(=O)c2cc([N+](=O)[O-])c(NC3CC3)cc21	≥ 200	47 (≈ 16.2 µg/mL)	> 200	> 125	2 (≈ 0.691 µg/mL)	31 (≈ 10.7 µg/mL)	47 (≈ 16.2 µg/mL)	> 200	> 200	7 (≈ 2.42 µg/mL)	25 (≈ 8.63 µg/mL)	25 (≈ 8.63 µg/mL)	25 (≈ 8.63 µg/mL)	25 (≈ 8.63 µg/mL)	10 (≈ 3.45 µg/mL)	5 (≈ 1.73 µg/mL)	2.5 (≈ 0.863 µg/mL)	10 (≈ 3.45 µg/mL)	
Nc1cc2c(=O)c(C(=O)O)cn(C3CC3)c2cc1NC1CC1	200	129 (≈ 38.6 µg/mL)	> 200	200 (≈ 59.9 µg/mL)	156 (≈ 46.7 µg/mL)	> 200	> 200			> 200		> 200		> 200	50 (≈ 15 µg/mL)	50 (≈ 15 µg/mL)	25 (≈ 7.48 µg/mL)	25 (≈ 7.48 µg/mL)	
CC(C)(C)Nc1cc2c(cc1[N+](=O)[O-])c(=O)c(C(=O)O)cn2C(C)(C)C	140	1.2 (≈ 0.434 µg/mL)	12 (≈ 4.34 µg/mL)		0.5 (≈ 0.181 µg/mL)	1.4 (≈ 0.506 µg/mL)	1.5 (≈ 0.542 µg/mL)	6 (≈ 2.17 µg/mL)	6 (≈ 2.17 µg/mL)	1.5 (≈ 0.542 µg/mL)	6 (≈ 2.17 µg/mL)	3 (≈ 1.08 µg/mL)	6 (≈ 2.17 µg/mL)	6 (≈ 2.17 µg/mL)	0.05 (≈ 0.0181 µg/mL)	0.05 (≈ 0.0181 µg/mL)	0.05 (≈ 0.0181 µg/mL)	0.05 (≈ 0.0181 µg/mL)	
CC(C)(C)Nc1cc2c(cc1F)c(=O)c(C(=O)O)cn2C(C)(C)C	> 200	> 200		36 (≈ 12 µg/mL)	34.5 (≈ 11.5 µg/mL)	126 (≈ 42.1 µg/mL)	> 200	≥ 200		> 200	12 (≈ 4.01 µg/mL)	12 (≈ 4.01 µg/mL)	25 (≈ 8.36 µg/mL)	12 (≈ 4.01 µg/mL)	12 (≈ 4.01 µg/mL)	12 (≈ 4.01 µg/mL)	12 (≈ 4.01 µg/mL)	12 (≈ 4.01 µg/mL)	129 (≈ 43.1 µg/mL)
O=C(O)c1cn(C2CC2)c2cc(N3CCNCC3)c(F)cc2c1=O [CIPROFLOXACIN]	60	2 (≈ 0.663 µg/mL)	3 (≈ 0.994 µg/mL)					3 (≈ 0.994 µg/mL)			0.01 (≈ 0.00331 µg/mL)	0.01 (≈ 0.00331 µg/mL)	0.01 (≈ 0.00331 µg/mL)	0.01 (≈ 0.00331 µg/mL)	0.8 (≈ 0.265 µg/mL)	0.4 (≈ 0.133 µg/mL)	0.4 (≈ 0.133 µg/mL)	0.4 (≈ 0.133 µg/mL)	
CC1COc2c(N3CCN(C)CC3)c(F)cc3c(=O)c(C(=O)O)cn1c23 (stereo not drawn) [OFLOXACIN]	> 200	1.5 (≈ 0.542 µg/mL)	3 (≈ 1.08 µg/mL)	2 (≈ 0.723 µg/mL)	2 (≈ 0.723 µg/mL)	3 (≈ 1.08 µg/mL)	2 (≈ 0.723 µg/mL)	3 (≈ 1.08 µg/mL)	3 (≈ 1.08 µg/mL)	4 (≈ 1.45 µg/mL)	0.4 (≈ 0.145 µg/mL)	0.4 (≈ 0.145 µg/mL)	0.4 (≈ 0.145 µg/mL)	0.4 (≈ 0.145 µg/mL)	1.5 (≈ 0.542 µg/mL)	1.5 (≈ 0.542 µg/mL)	0.8 (≈ 0.289 µg/mL)	0.8 (≈ 0.289 µg/mL)	5 (≈ 1.81 µg/mL)
O=C(O)c1cn(C2CC2)c2cc(NC3CC3)c(F)cc2c1=O	> 200	> 200	> 200	> 125	150 (≈ 45.3 µg/mL)	> 200	> 200			> 200	12 (≈ 3.63 µg/mL)	12 (≈ 3.63 µg/mL)	25 (≈ 7.56 µg/mL)	12 (≈ 3.63 µg/mL)	12 (≈ 3.63 µg/mL)	12 (≈ 3.63 µg/mL)	12 (≈ 3.63 µg/mL)	12 (≈ 3.63 µg/mL)	> 200
O=C(O)c1cn(C2CC2)c2cc(NC3CC3)c([N+](=O)[O-])cc2c1=O	40	> 200		3.6 (≈ 1.19 µg/mL)	3.2 (≈ 1.05 µg/mL)	≥ 200	72 (≈ 23.7 µg/mL)	> 200	> 200	50 (≈ 16.5 µg/mL)	1.5 (≈ 0.494 µg/mL)	1.5 (≈ 0.494 µg/mL)	1.5 (≈ 0.494 µg/mL)	1.5 (≈ 0.494 µg/mL)	0.8 (≈ 0.263 µg/mL)	0.8 (≈ 0.263 µg/mL)	0.8 (≈ 0.263 µg/mL)	1.5 (≈ 0.494 µg/mL)	100 (≈ 32.9 µg/mL)
CC(C)(C)Nc1cc2c(cc1[N+](=O)[O-])c(=O)c(C(=O)O)cn2C1CC1	192	54 (≈ 18.6 µg/mL)	> 200	> 125	2 (≈ 0.691 µg/mL)	35 (≈ 12.1 µg/mL)	16 (≈ 5.53 µg/mL)	> 200	> 200	5 (≈ 1.73 µg/mL)	25 (≈ 8.63 µg/mL)	25 (≈ 8.63 µg/mL)	25 (≈ 8.63 µg/mL)	25 (≈ 8.63 µg/mL)	2.5 (≈ 0.863 µg/mL)	0.6 (≈ 0.207 µg/mL)	0.6 (≈ 0.207 µg/mL)	1.2 (≈ 0.414 µg/mL)	
CC(C)(C)Nc1cc2c(cc1N)c(=O)c(C(=O)O)cn2C(C)(C)C	> 200	140 (≈ 46.4 µg/mL)	> 200	> 125	> 125	168 (≈ 55.7 µg/mL)	> 200	> 200	> 200			> 125		> 125		> 125	> 125		
